Measured values: ChEMBL document CHEMBL1201862, “PubChem BioAssay data set” (2004)
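Step 1: Grow cells in 96-well plates. Step 2: Expose to compound for 48 hours at 5 concentrations. Step 3: Interpolate endpoints linearly; if unreached, use highest concentration. GI50: concentration for 50% inhibition of growth.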 Active and inactive are the calls of the source. Rule as the data show it: active = GI50 up to about 1.1 µM and inactive = higher.

Columns and labels:
Assay in all cases: DTP human tumour cell line panel, 48 h
[1] = system: A498
[2] = system: CAKI-1
[3] = system: DU-145
[4] = system: HCT-15
[5] = system: HOP-62
[6] = system: KM12
[7] = system: M14
[8] = system: MDA-MB-231
[9] = system: NCI-H460
[10] = system: OVCAR-3
[11] = system: PC-3
[12] = system: RPMI-8226
[13] = system: SF-268
[14] = system: SK-MEL-2
[15] = system: SK-MEL-5
[16] = system: SN12C
[17] = system: SNB-19
[18] = system: U-251
[19] = system: UACC-62
[20] = system: UO-31

SMILES | GI50 [1] | GI50 [2] | GI50 [3] | GI50 [4] | GI50 [5] | GI50 [6] | GI50 [7] | GI50 [8] | GI50 [9] | GI50 [10] | GI50 [11] | GI50 [12] | GI50 [13] | GI50 [14] | GI50 [15] | GI50 [16] | GI50 [17] | GI50 [18] | GI50 [19] | GI50 [20]
CN(C)CCNc1ccc2c(=O)n(CCN(C)C)c(=O)n3c4ccc(O)cc4c(=O)c1c23 | 0.0611 µM (active) | < 0.01 µM (active) | < 0.01 µM (active) | 0.045 µM | < 0.01 µM (active) | 0.122 µM (active) | < 0.034 µM (active) | < 0.0395 µM (active) | < 0.01 µM (active) | 0.105 µM (active) | < 0.0491 µM (active) | < 0.0104 µM (active) | < 0.0134 µM (active) | 0.226 µM (active) | < 0.0115 µM (active) | 0.0103 µM (active) | < 0.0212 µM (active) | < 0.0109 µM (active) | < 0.0128 µM (active) | < 0.0148 µM (active)
CNC1C(O)CC(OC2C/C=C(\C)C/C(C)=C/C=C/CCC(C)CNC(=O)/C=C/C=C/C2C)OC1C (stereo not given) | 1.72 µM (inactive) | 0.877 µM (active) | 0.719 µM (active) | 0.202 µM | 1.03 µM (active) | 0.432 µM (active) | 0.24 µM (active) | 0.841 µM (active) | 0.173 µM (active) | 0.986 µM (active) | 1.06 µM (active) | 0.22 µM (active) | 0.746 µM (active) | 1.19 µM (inactive) | 0.811 µM (active) | 0.82 µM (active) | 2.84 µM (inactive) | 0.521 µM (active) | 0.44 µM (active) | 2.85 µM (inactive)
O=[N+]([O-])c1ccc(N2CCC(CCCC3CCN(c4ccc([N+](=O)[O-])cc4[N+](=O)[O-])CC3)CC2)c([N+](=O)[O-])c1 | 17 µM (inactive) | 19 µM (inactive) | 21.7 µM (inactive) | 18.3 µM | 15.5 µM (inactive) | 16.7 µM (inactive) | 13.2 µM (inactive) | 18.7 µM (inactive) | 14.3 µM (inactive) | 18 µM (inactive) | 15.8 µM (inactive) | 13.4 µM (inactive) | 20 µM (inactive) | 16.9 µM (inactive) | 15.1 µM (inactive) | 32.1 µM (inactive) | 16.1 µM (inactive) | 14.8 µM (inactive) | 11.9 µM (inactive) | 11.9 µM (inactive)
CC(CCCC1SCC2NC(=O)NC21)C(=O)O (stereo not given) | > 100 µM (inactive) | > 100 µM (inactive) | > 100 µM (inactive) | > 100 µM | > 100 µM (inactive) | > 100 µM (inactive) | > 100 µM (inactive) | > 100 µM (inactive) | > 100 µM (inactive) | > 100 µM (inactive) | > 100 µM (inactive) | > 100 µM (inactive) | > 100 µM (inactive) | > 100 µM (inactive) | > 100 µM (inactive) | > 100 µM (inactive) | > 100 µM (inactive) | > 100 µM (inactive) | > 100 µM (inactive) | > 100 µM (inactive)
N#CC(C#N)=C1SC(=N\c2ccccc2)/C(=N/c2ccccc2)N1c1ccccc1 | > 52.2 µM (inactive) | 11.8 µM (inactive) | 42.9 µM (inactive) | 2.03 µM | 27.7 µM (inactive) | > 38.5 µM (inactive) | 25.3 µM (inactive) | 7.8 µM (inactive) | 19.2 µM (inactive) | 2.37 µM (inactive) | 7.6 µM (inactive) | 5.75 µM (inactive) | 19.3 µM (inactive) | 5.19 µM (inactive) | 14.3 µM (inactive) | 23.9 µM (inactive) | 40.2 µM (inactive) | 15.6 µM (inactive) | 5.79 µM (inactive) | 12.7 µM (inactive)
CCOC(=O)NC(Nc1cccc(F)c1)(C(F)(F)F)C(F)(F)F | > 100 µM (inactive) | > 100 µM (inactive) | > 100 µM (inactive) | > 100 µM | > 100 µM (inactive) | > 100 µM (inactive) | > 100 µM (inactive) | > 100 µM (inactive) | > 100 µM (inactive) | > 100 µM (inactive) | > 100 µM (inactive) | > 100 µM (inactive) | > 100 µM (inactive) | > 100 µM (inactive) | > 100 µM (inactive) | > 100 µM (inactive) | > 100 µM (inactive) | > 100 µM (inactive) | 86.5 µM (inactive) | 4.94 µM (inactive)
Cc1ccc2ccc(O)cc2c1 | 37.2 µM (inactive) | 38.1 µM (inactive) | 91.6 µM (inactive) | 35.6 µM | > 100 µM (inactive) | 28.4 µM (inactive) | 46.5 µM (inactive) | 30 µM (inactive) | 89.1 µM (inactive) | 10.2 µM (inactive) | 21.1 µM (inactive) | 27.9 µM (inactive) | 31.8 µM (inactive) | 38.1 µM (inactive) | 57.4 µM (inactive) | 94.6 µM (inactive) | > 100 µM (inactive) | 23.1 µM (inactive) | 43.6 µM (inactive) | 23 µM (inactive)
O=C(Cn1c2ccc(Br)cc2c2nc3ccccc3nc21)NC1CCCCC1 | > 100 µM (inactive) | > 100 µM (inactive) | > 100 µM (inactive) | > 100 µM | > 100 µM (inactive) | > 100 µM (inactive) | > 100 µM (inactive) | > 100 µM (inactive) | > 100 µM (inactive) | > 100 µM (inactive) | > 100 µM (inactive) | > 100 µM (inactive) | > 100 µM (inactive) | > 100 µM (inactive) | > 100 µM (inactive) | > 100 µM (inactive) | > 100 µM (inactive) | > 100 µM (inactive) | > 100 µM (inactive) | > 100 µM (inactive)
COc1ccc(NC(=O)CC(=O)n2nc(C)c(/N=N/c3cccc(C)c3)c2C)cc1 | 56.6 µM (inactive) | > 100 µM (inactive) | > 100 µM (inactive) | > 100 µM | 37.6 µM (inactive) | > 100 µM (inactive) | > 100 µM (inactive) | > 100 µM (inactive) | > 100 µM (inactive) | > 100 µM (inactive) | > 100 µM (inactive) | 91.8 µM (inactive) | > 100 µM (inactive) | > 100 µM (inactive) | > 100 µM (inactive) | > 100 µM (inactive) | > 100 µM (inactive) | 54.1 µM (inactive) | > 100 µM (inactive) | > 100 µM (inactive)
N#CCCN(CCC#N)c1ccc(/C=C2\SC(=S)NC2=O)cc1Br | 33.3 µM (inactive) | > 100 µM (inactive) | > 100 µM (inactive) | > 100 µM | 15.3 µM (inactive) | 66.7 µM (inactive) | > 100 µM (inactive) | 25.9 µM (inactive) | > 100 µM (inactive) | > 100 µM (inactive) | > 100 µM (inactive) | > 100 µM (inactive) | 20.9 µM (inactive) | > 100 µM (inactive) | > 100 µM (inactive) | > 100 µM (inactive) | 23.8 µM (inactive) | 17.3 µM (inactive) | > 100 µM (inactive) | > 100 µM (inactive)
COC(=O)C1([C@@H]2C[C@@H](O)[C@]3(C)CC/C=C(\C)CCC[C@H](C)[C@H](O)[C@@H]2O3)CC1 | > 100 µM (inactive) | > 100 µM (inactive) | 66.8 µM (inactive) | 34.9 µM | 76.4 µM (inactive) | 60.4 µM (inactive) | 53.3 µM (inactive) | 90.2 µM (inactive) | 32.7 µM (inactive) | 51.4 µM (inactive) | 31.8 µM (inactive) | 50.7 µM (inactive) | 64.7 µM (inactive) | 73.3 µM (inactive) | 39.4 µM (inactive) | > 100 µM (inactive) | 46.7 µM (inactive) | 71.9 µM (inactive) | 66.8 µM (inactive) | 23.8 µM (inactive)
Clc1cc(-c2ccccc2)nc2ccccc12 | 33 µM (inactive) | 33.9 µM (inactive) | 40.6 µM (inactive) | 16 µM | > 100 µM (inactive) | 28.1 µM (inactive) | 37.6 µM (inactive) | 35.4 µM (inactive) | 35.5 µM (inactive) | 49.9 µM (inactive) | 24.8 µM (inactive) | 23.7 µM (inactive) | 44.9 µM (inactive) | 19.1 µM (inactive) | 18.1 µM (inactive) | 41.1 µM (inactive) | 88.7 µM (inactive) | 35.4 µM (inactive) | 42.6 µM (inactive) | 32.9 µM (inactive)
O=[N+]([O-])c1ccc(N/N=C/c2ccc(OCCCCCCCCCCCO)cc2)c([N+](=O)[O-])c1 | 36 µM (inactive) | 3.34 µM (inactive) | 19.7 µM (inactive) | 9.12 µM | 4.39 µM (inactive) | 2.75 µM (inactive) | 1.39 µM (inactive) | 35.2 µM (inactive) | 2.5 µM (inactive) | 30.3 µM (inactive) | 2.45 µM (inactive) | 30.9 µM (inactive) | 2.84 µM (inactive) | 10.3 µM (inactive) | 1.77 µM (inactive) | 3.24 µM (inactive) | 6.12 µM (inactive) | 2.37 µM (inactive) | 2.32 µM (inactive) | 7.35 µM (inactive)
O=Cc1cc2c(o1)C(=O)c1ccccc1C2=O | 4.78 µM (inactive) | 2.84 µM (inactive) | 0.212 µM (active) | 0.281 µM | 0.834 µM (active) | 1.07 µM (active) | 0.192 µM (active) | 3.07 µM (inactive) | 0.794 µM (active) | 0.358 µM (active) | 2.53 µM (inactive) | 1.82 µM (inactive) | 1.55 µM (inactive) | 0.601 µM (active) | 0.233 µM (active) | 0.279 µM (active) | 0.656 µM (active) | 0.851 µM (active) | 1.78 µM (inactive) | 1.42 µM (inactive)
